One test has as its system soybean variety Maxi. As to the kind of experiment: Greenhouse trial for desiccation in soybean. Type of test: in vivo. The following applies: foliar spray 100 L/ha, three days after application. The procedure:
(§1) The trial was established under greenhouse conditions. The objective was to evaluate the dessication activity of saflufenacil solo and in mixture with cyclanilide and ethephon.
(§2) The plants (soybean variety Maxi, cotton Variety Oxford) were sown (Dec. 3, 2012) in pots with 8.5 cm of diameter using standard soil from Limburgerhof, Palatinate, Germany, emerging after 3 days, maintained during the entire growth period at temperatures of about 20 to 24° C., relative humidity of about 65 to 70%, watering in the afternoon or in the morning. Each treatment was composed by 4 replications (one plant per pot).
(§3) Foliar treatments were applied 51 days after sowing (Jan. 23, 2013) in a spray cabin with one Flat fan nozzle, using 100 L/ha as application volume. The spray solutions were prepared according to the given concentration of Tables 1 and 2 and contained in addition to the formulations used a surfactant (DASH HC, BASF S.A., Brazil; EC formulation based on methyl esters) at 0,5% (v/v).
(§4) Saflufenacil (70% (w/w), WG formulation; Sharpen® BASF Corporation, USA)
(§5) Ethephon (480 g/L, SL formulation)
(§6) Cyclanilide, (300 g/kg, WP formulation)
(§7) Assessments were made at three days after applicaton in soybean and seven days after application in cotton by evaluating percentage of symptoms of damage to the crop, mainly chlorosis and necrosis.

The test system of the next test is cotton Variety Oxford. As to the kind of experiment: Greenhouse trial for desiccation in cotton. It counts as in vivo. The following applies: foliar spray 100 L/ha, seven days after application. The protocol: as §1, §2, §3, §4, §5, §6, §7
Setting [1] is: 1.5 g of a.i. per 100 L, percentage of symptoms of damage.
The mark [2] stands for this setting: 20 g of a.i. per 100 L, percentage of symptoms of damage.
[3] abbreviates: 1.4 g of a.i. per 100 L, percentage of symptoms of damage (chlorosis and necrosis).

As to `O=C(O)C1(C(=O)Nc2ccc(Cl)cc2Cl)CC1` [Cyclanilide], the “Observed activity (%)” value in the test on soybean variety Maxi (setting [1]) and in the test with cotton Variety Oxford (setting [1]) was 0% each time.
Consider `O=P(O)(O)CCCl` [Ethephon], for which the “Observed activity (%)” value with soybean variety Maxi (setting [2]) and in the test with cotton Variety Oxford (setting [2]) was 0% in each case.
As to `CC(C)N(C)S(=O)(=O)NC(=O)c1cc(-n2c(=O)cc(C(F)(F)F)n(C)c2=O)c(F)cc1Cl` [Saflufenacil], the “Observed activity (%)” value came to 15% with soybean variety Maxi (setting [3]) and 18.8% with cotton Variety Oxford (setting [3]).

These data come from US20130244876A1, “Synergistic compositions comprising ethephon and saflufenacil or cyclanilide and saflufenacil” (priority 2012, published 2013).
